The structures appear in SMILES notation.

The subject of data set [1] is intact choroid plexus tissue. As to conditions: intact choroid plexus tissue from guinea pig ref 47; cited from earlier work.
Data set [2] relates to Mrp1. Details: method as in PMID 10675353. As to conditions: animals lacking Mrp1 ref 49; cited from earlier work.
Data set [3] concerns the target Mrp1 (Sus scrofa, UniProt K9IVJ9). As to conditions: 2 μM FL-MTX, CPEC; direction taken from paragraph and Figure 10B.
Data set [4] relates to choroid plexus epithelial cells.
Method: (§1) To assess CSF secretion by cultured CPEC, cells were cultured on permeable, polyester six-well Transwell® filter plates coated with 5 μg/ml laminin for 13 to 15 DIC. […] Following a 1 h preincubation with CSFB, 1.0 ml 1.0 μM 67 kDa fluorescent-dextran (FITC-dextran) in CSFB was added to both apical and basolateral chambers and secreted CSF volume (in μl/cm^2) was calculated as a function of FITC-dextran concentration change.
(§2) The permeability coefficient P of test compounds was calculated according to equation (2):
(§3) P=dc/dt×Vacceptor/A×c0 (2) MathType@MTEF@5@5@+=feaafiart1ev1aaatCvAUfKttLearuWrP9MDH5MBPbIqV92AaeXatLxBI9gBaebbnrfifHhDYfgasaacH8akY=wiFfYdH8Gipec8Eeeu0xXdbba9frFj0=OqFfea0dXdd9vqai=hGuQ8kuc9pgc9s8qqaq=dirpe0xb9q8qiLsFr0=vr0=vr0dc8meaabaqaciaacaGaaeqabaqabeGadaaakeaacqWGqbaucqGH9aqpdaWcaaqaaiabdsgaKjabdogaJbqaaiabdsgaKjabdsha0baacqGHxdaTdaWcaaqaaiabdAfawnaaBaaaleaacqWGHbqycqWGJbWycqWGJbWycqWGLbqzcqWGWbaCcqWG0baDcqWGVbWBcqWGYbGCaeqaaaGcbaGaemyqaeKaey41aqRaem4yam2aaSbaaSqaaiabicdaWaqabaaaaOGaaCzcaiaaxMaadaqadaqaaiabikdaYaGaayjkaiaawMcaaaaa@4C1D@
(§4) with dc/dt representing the change of the acceptor concentration over time, Vacceptor the acceptor volume, A the membrane surface area and c0 the initial donor concentration. Concentrations were assessed by analysis in a fluorescent plate reader (Ascent Fluoroscan) for fluorescent-labelled compounds.
Data set [5] shares this test system. Nature of the data set: Permeability across choroid plexus epithelial cell (CPEC) monolayers on Transwell filters. The following applies: apical versus basolateral direction.
Method: as §1, §2, §3, §4

Chain of Mrp1 (Sus scrofa, UniProt K9IVJ9) (K9IVJ9 1-1532): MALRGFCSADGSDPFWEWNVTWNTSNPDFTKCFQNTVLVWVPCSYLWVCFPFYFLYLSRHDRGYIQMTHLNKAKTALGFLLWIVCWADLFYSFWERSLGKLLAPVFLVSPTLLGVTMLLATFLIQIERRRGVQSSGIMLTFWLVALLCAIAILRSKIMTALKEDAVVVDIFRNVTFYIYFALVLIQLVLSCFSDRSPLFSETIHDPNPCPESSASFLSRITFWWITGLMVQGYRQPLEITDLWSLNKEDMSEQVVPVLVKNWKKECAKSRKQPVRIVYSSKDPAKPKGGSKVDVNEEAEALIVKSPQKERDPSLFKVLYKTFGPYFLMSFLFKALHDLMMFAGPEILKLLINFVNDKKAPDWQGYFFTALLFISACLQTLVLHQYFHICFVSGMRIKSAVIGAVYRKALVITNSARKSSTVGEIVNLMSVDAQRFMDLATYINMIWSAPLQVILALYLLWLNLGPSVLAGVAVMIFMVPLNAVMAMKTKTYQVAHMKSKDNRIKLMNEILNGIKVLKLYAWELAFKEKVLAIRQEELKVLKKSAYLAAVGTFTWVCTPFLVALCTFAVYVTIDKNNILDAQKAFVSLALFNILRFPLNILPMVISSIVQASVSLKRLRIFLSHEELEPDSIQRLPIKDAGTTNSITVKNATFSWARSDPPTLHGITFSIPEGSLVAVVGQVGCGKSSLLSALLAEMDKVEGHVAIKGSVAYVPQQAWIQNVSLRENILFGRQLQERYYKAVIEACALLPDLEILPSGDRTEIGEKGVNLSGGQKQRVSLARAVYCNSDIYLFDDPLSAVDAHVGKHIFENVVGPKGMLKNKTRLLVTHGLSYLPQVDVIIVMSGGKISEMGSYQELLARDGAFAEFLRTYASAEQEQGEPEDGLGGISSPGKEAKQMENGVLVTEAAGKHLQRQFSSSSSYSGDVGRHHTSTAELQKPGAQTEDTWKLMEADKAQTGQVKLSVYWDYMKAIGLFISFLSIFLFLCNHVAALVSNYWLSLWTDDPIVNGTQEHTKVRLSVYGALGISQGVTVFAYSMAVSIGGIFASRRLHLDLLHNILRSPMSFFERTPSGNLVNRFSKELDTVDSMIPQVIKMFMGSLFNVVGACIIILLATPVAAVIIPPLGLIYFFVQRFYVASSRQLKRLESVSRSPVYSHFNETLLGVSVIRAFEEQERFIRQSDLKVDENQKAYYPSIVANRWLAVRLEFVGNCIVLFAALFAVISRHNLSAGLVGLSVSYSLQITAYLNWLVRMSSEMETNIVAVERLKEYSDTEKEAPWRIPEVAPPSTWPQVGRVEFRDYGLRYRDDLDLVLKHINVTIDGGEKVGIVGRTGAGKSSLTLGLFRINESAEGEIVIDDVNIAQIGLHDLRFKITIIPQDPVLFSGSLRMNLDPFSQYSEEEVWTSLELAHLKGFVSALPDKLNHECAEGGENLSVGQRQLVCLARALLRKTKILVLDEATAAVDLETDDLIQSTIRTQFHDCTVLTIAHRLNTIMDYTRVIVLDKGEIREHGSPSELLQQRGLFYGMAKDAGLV

For `CC[C@]1(O)C[C@@H]2CN(CCc3c([nH]c4ccccc34)[C@@](C(=O)OC)(c3cc4c(cc3OC)N(C)[C@H]3[C@@](O)(C(=O)OC)[C@H](OC(C)=O)[C@]5(CC)C=CCN6CC[C@]43[C@@H]65)C2)C1` [vinblastine], the “influence on uptake of the Pgp substrate ritonavir” value in data set [1] was “not influenced”.

Take `COc1cc([C@@H]2c3cc4c(cc3[C@@H](O[C@@H]3O[C@@H]5CO[C@@H](C)O[C@H]5[C@H](O)[C@H]3O)[C@H]3COC(=O)[C@H]23)OCO4)cc(OC)c1O` [etoposide]: the “accumulation in CSF” value in data set [2] is on record as “increased accumulation”.

On to `CCCN(CCC)S(=O)(=O)c1ccc(C(=O)O)cc1` [probenecid], for which, in data set [3], the “effect on FL-MTX transport from the basolateral to the apical side” value is “did not significantly affect”.

As for `O=C(O)c1ccc2c(c1)C(=O)OC21c2ccc(O)cc2Oc2cc(O)ccc21` [5-carboxyfluorescein], in data set [4], the “Papp (apparent permeability coefficient)” value worked out at 45 ×10⁻⁶ cm/s and the “Papp with opened tight junctions versus intact monolayer” value is on record as “nearly doubling”.

Consider `Nc1ccc(C(=O)NCC(=O)O)cc1` [p-aminohippuric acid], for which, in data set [3], the “effect on FL-MTX transport from the basolateral to the apical side” value is “did not significantly affect”.

Regarding `COC(=O)c1ccccc1-c1c2ccc(=N)cc-2oc2cc(N)ccc12` [rhodamine 123], the “preferred / directed transport across CP epithelial cells” value in data set [5] was “no directed transport”.

The values are drawn from PMC1774582, “Choroid plexus epithelial monolayers – a cell culture model from porcine brain” (Cerebrospinal Fluid Research, 2006).
